Data published in patent US10683520B2, “Polycarboxylic acid extraction” (PURAC BIOCHEM BV, priority 2011, dated 2020).

Test: Forward extraction of acid from salt-containing aqueous feed into methyl-isobutylketone and back extraction into water
Type: physicochemical
Details: 20° C.; for DBE (distribution ratio in back extraction, [acid]organic/[acid]water): MIBK organic phase / pure water; for [acid] aqueous fraction after back extraction: feed with 15 wt. % MgCl2 (acid in feed per Table 1.1), back extraction into pure water; for [acid] aqueous fraction after back extraction / DFE (distribution ratio in forward extraction, [acid]organic/[acid]water) / concentration ratio (acid concentration in product / acid concentration in feed): MIBK; for DFE (distribution ratio in forward extraction, [acid]organic/[acid]water) / concentration ratio (acid concentration in product / acid concentration in feed): feed with 15 wt. % MgCl2
Text: Forward extraction and back extraction as used in the method of the invention are based on the difference in solubility of the carboxylic acid in water and the organic solvent at different temperatures. The solubility of a compound in one solvent relative to another solvent can be expressed in terms of the distribution ratio (DR). […] The distribution ratio may be defined as the ratio of the carboxylic acid concentration dissolved in the organic phase ([carboxylic acid]organic) over the concentration of the carboxylic acid dissolved in water ([carboxylic acid]water), provided that the two phases are in equilibrium with each other: DR=[carboxylic acid]organic/[carboxylic acid]water (1)
The general procedure is set up to mimic a continuous extraction process.
A feed solution was prepared comprising acid and salt in the amounts stipulated in the table. The solutions were stirred overnight.
1000 g of this feed solution was mixed with approximately 100 g of methyl-isobutylketone as solvent and stirred at 20° C. for minimum of 15 minutes. The mixture was transferred to a separation funnel where phases were separated. Samples of both phases were taken for analysis. Then approximately 100 g of organic phase was mixed with 10 g of pure water and stirred for minimum of 15 min at 20° C. Subsequently the whole mixture is again transferred to the separation funnel, phases are left to separate and samples of both phases are taken. Samples were analysed on acid content.
These tables also give the concentration ratio, which is the ratio between the acid concentration in the product and the acid concentration in the feed.
The composition of the starting solution and the acid concentration in the products is in Table 2.1 below.

Row | Structure (SMILES) | DBE (distribution ratio in back extraction, [acid]organic/[acid]water) | [acid] aqueous fraction after back extraction | DFE (distribution ratio in forward extraction, [acid]organic/[acid]water) | concentration ratio (acid concentration in product / acid concentration in feed)
1 | O=C(O)/C=C/C(=O)O [Fumaric acid, fumaric acid] | 0.24 | 0.21 wt. % | 1.75 | 1.8
2 | C=C(CC(=O)O)C(=O)O [Itaconic acid, itaconic acid] | 1.07 | 2.8 wt. % | 2.83 | 1.9
